Reference: US20220389061A1, “IMMUNOMODULATORS” (priority 2019, published 2022)
Starred links: 1 amine or outer side, 2 acyl side, 3 side chain; linkers in the order of their positions; H or OH if unused. Positions of bridges follow the written chain, without caps; N, C: chain ends. Non-standard residues stand in square brackets, D forms with d. Residues, ends and D or L forms follow the SMILES beside them. Groups on a side chain read outwards from the residue. *: point of attachment. Trp(1-CH2COOH) = N[C@@H](Cc1cn(CC(=O)O)c2ccccc12)C(=O)O; X24 = COc1cc(NC(=S)*)ccc1-n1cnc(C)n1; X38 = N#Cc1c[nH]c2c(NC(=S)*)cccc12; Hyp = O=C(O)[C@@H]1C[C@@H](O)CN1; X78 = S=C(Nc1c(Cl)cc(Cl)cc1Cl)*; NMeNle = CCCC[C@H](NC)C(=O)O; X54 = S=C(Nc1cccc2ncccc12)*; X2 = c1ccc(-c2ccccc2N*)cc1; X5 = S=C(Nc1cccc2ccccc12)*; X59 = S=C(Nc1ccc2nsnc2c1)*; X64 = COc1cc(OC)c(N*)cc1Cl; X86 = CCOc1ccc(NC(=S)*)cc1; 3Abz = Nc1cccc(C(=O)O)c1; NMeA = CN[C@@H](C)C(=O)O; βNA = c1ccc2cc(N*)ccc2c1; Dab = NCC[C@H](N)C(=O)O; X39 = CCCCOc1ccc(N*)cc1; Dap = NC[C@H](N)C(=O)O; X37 = Fc1cc(F)cc(N*)c1; CO = O=C([*:1])[*:2]

molecular target: T1, PD-1/PD-L1 (Homo sapiens, UniProt Q9NZQ7); test: PD-1/PD-L1 Homogenous Time-Resolved Fluorescence (HTRF) binding assay; details: not given
T1 construct: TVMV protease site linker (C); made in house; host or cells: HEK293T cells
In short: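 Compounds preincubated 15 min with PD-L1-His (10 nM final), then PD-1-Ig (20 nM final) added for 15 min in dPBS with 0.1% BSA, 0.05% Tween-20. Detection by Eu-cryptate anti-Ig (1 nM) and APC anti-His (20 nM) HTRF.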

T1 sequence (Q9NZQ7 18-239): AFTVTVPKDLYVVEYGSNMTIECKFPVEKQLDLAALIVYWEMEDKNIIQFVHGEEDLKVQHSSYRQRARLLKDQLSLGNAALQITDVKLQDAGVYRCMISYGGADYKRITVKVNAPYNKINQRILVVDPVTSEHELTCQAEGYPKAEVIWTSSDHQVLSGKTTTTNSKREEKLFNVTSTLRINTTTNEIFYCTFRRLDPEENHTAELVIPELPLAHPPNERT

Row | SMILES | IC50
1 | CCCC[C@H]1C(=O)N(C)[C@@H](CCCC)C(=O)N[C@@H](CC(C)C)C(=O)N[C@H](C(=O)NCC(N)=O)CSCC(=O)N[C@@H](Cc2ccc(O)cc2)C(=O)N(C)[C@@H](C)C(=O)N[C@@H](CC(N)=O)C(=O)N2CCC[C@H]2C(=O)N[C@@H](CNC(=O)Nc2ccc3ccccc3c2)C(=O)N[C@@H](CC(C)C)C(=O)N2C[C@H](O)C[C@H]2C(=O)N[C@@H](Cc2c[nH]c3ccccc23)C(=O)N[C@@H](CCN)C(=O)N[C@@H](Cc2cn(CC(=O)O)c3ccccc23)C(=O)N1C [Example 3043] ({CH2CO}-Y[NMeA]NP[Dap]([CO-βNA])L[Hyp]W[Dab][Trp(1-CH2COOH)][NMeNle][NMeNle]LCG-NH2; thioether N-14) | 3.2 nM

same assay, conditions: PD-L1-His 10 nM pre-incubated with inhibitor, PD-1-Ig 20 nM; read-out: HTRF IC50

Row | IC50 | SMILES
2 | 3.4 nM | CCCC[C@H]1C(=O)N(C)[C@@H](CCCC)C(=O)N[C@@H](CC(C)C)C(=O)N[C@H](C(=O)NCC(N)=O)CSCC(=O)N[C@@H](Cc2ccc(O)cc2)C(=O)N(C)[C@@H](C)C(=O)N[C@@H](CC(N)=O)C(=O)N2CCC[C@H]2C(=O)N[C@@H](CNC(=S)Nc2ccc(-n3cnc(C)n3)c(OC)c2)C(=O)N[C@@H](CC(C)C)C(=O)N2C[C@H](O)C[C@H]2C(=O)N[C@@H](Cc2c[nH]c3ccccc23)C(=O)N[C@@H](CCNC(=S)Nc2ccc(-n3cnc(C)n3)c(OC)c2)C(=O)N[C@@H](Cc2cn(CC(=O)O)c3ccccc23)C(=O)N1C [Example 1092] ({CH2CO}-Y[NMeA]NP[Dap](X24)L[Hyp]W[Dab](X24)[Trp(1-CH2COOH)][NMeNle][NMeNle]LCG-NH2; thioether N-14)
3 | 4.5 nM | CCCC[C@H]1C(=O)N(C)[C@@H](CCCC)C(=O)N[C@@H](CC(C)C)C(=O)N[C@H](C(=O)NCC(N)=O)CSCC(=O)N[C@@H](Cc2ccc(O)cc2)C(=O)N(C)[C@@H](C)C(=O)N[C@@H](CC(N)=O)C(=O)N2CCC[C@H]2C(=O)N[C@@H](CNC(=S)Nc2cccc3c(C#N)c[nH]c23)C(=O)N[C@@H](CC(C)C)C(=O)N2C[C@H](O)C[C@H]2C(=O)N[C@@H](Cc2c[nH]c3ccccc23)C(=O)N[C@@H](CCNC(=S)Nc2cccc3c(C#N)c[nH]c23)C(=O)N[C@@H](Cc2cn(CC(=O)O)c3ccccc23)C(=O)N1C [Example 3051] ({CH2CO}-Y[NMeA]NP[Dap](X38)L[Hyp]W[Dab](X38)[Trp(1-CH2COOH)][NMeNle][NMeNle]LCG-NH2; thioether N-14)
4 | 0.1 nM | CCCC[C@H]1C(=O)N(C)[C@@H](CCCC)C(=O)N[C@@H](CC(C)C)C(=O)N[C@H](C(=O)NCC(N)=O)CSCC(=O)N[C@@H](Cc2ccc(O)cc2)C(=O)N(C)[C@@H](C)C(=O)N[C@@H](CC(N)=O)C(=O)N2CCC[C@H]2C(=O)N[C@@H](CN)C(=O)N[C@@H](CC(C)C)C(=O)N2C[C@H](O)C[C@H]2C(=O)N[C@@H](Cc2c[nH]c3ccccc23)C(=O)N[C@@H](CCNC(=S)Nc2cccc3ccccc23)C(=O)N[C@@H](Cc2cn(CC(=O)O)c3ccccc23)C(=O)N1C [Example 3029] ({CH2CO}-Y[NMeA]NP[Dap]L[Hyp]W[Dab](X5)[Trp(1-CH2COOH)][NMeNle][NMeNle]LCG-NH2; thioether N-14)
5 | 1.5 nM | CCCC[C@H]1C(=O)N(C)[C@@H](CCCC)C(=O)N[C@@H](CC(C)C)C(=O)N[C@H](C(=O)NCC(N)=O)CSCC(=O)N[C@@H](Cc2ccc(O)cc2)C(=O)N(C)[C@@H](C)C(=O)N[C@@H](CC(N)=O)C(=O)N2CCC[C@H]2C(=O)N[C@@H](CNC(=O)Nc2cc(Cl)c(OC)cc2OC)C(=O)N[C@@H](CC(C)C)C(=O)N2C[C@H](O)C[C@H]2C(=O)N[C@@H](Cc2c[nH]c3ccccc23)C(=O)N[C@@H](CCNC(=O)Nc2cc(Cl)c(OC)cc2OC)C(=O)N[C@@H](Cc2cn(CC(=O)O)c3ccccc23)C(=O)N1C [Example 1082] ({CH2CO}-Y[NMeA]NP[Dap]([CO-X64])L[Hyp]W[Dab]([CO-X64])[Trp(1-CH2COOH)][NMeNle][NMeNle]LCG-NH2; thioether N-14)
6 | 4.3 nM | CCCC[C@H]1C(=O)N(C)[C@@H](CCCC)C(=O)N[C@@H](CC(C)C)C(=O)N[C@H](C(=O)NCC(N)=O)CSCC(=O)N[C@@H](Cc2ccc(O)cc2)C(=O)N(C)[C@@H](C)C(=O)N[C@@H](CC(N)=O)C(=O)N2CCC[C@H]2C(=O)N[C@@H](CNC(=S)Nc2ccc(OCC)cc2)C(=O)N[C@@H](CC(C)C)C(=O)N2C[C@H](O)C[C@H]2C(=O)N[C@@H](Cc2c[nH]c3ccccc23)C(=O)N[C@@H](CCN)C(=O)N[C@@H](Cc2cn(CC(=O)O)c3ccccc23)C(=O)N1C [Example 1026] ({CH2CO}-Y[NMeA]NP[Dap](X86)L[Hyp]W[Dab][Trp(1-CH2COOH)][NMeNle][NMeNle]LCG-NH2; thioether N-14)
7 | 3.4 nM | CCCCOc1ccc(NC(=O)NCC[C@@H]2NC(=O)[C@H](Cc3c[nH]c4ccccc34)NC(=O)[C@@H]3C[C@@H](O)CN3C(=O)[C@H](CC(C)C)NC(=O)[C@H](CN)NC(=O)[C@@H]3CCCN3C(=O)[C@H](CC(N)=O)NC(=O)[C@H](C)N(C)C(=O)[C@H](Cc3ccc(O)cc3)NC(=O)CSC[C@@H](C(=O)NCC(N)=O)NC(=O)[C@H](CC(C)C)NC(=O)[C@H](CCCC)N(C)C(=O)[C@H](CCCC)N(C)C(=O)[C@H](Cc3cn(CC(=O)O)c4ccccc34)NC2=O)cc1 [Example 1119] ({CH2CO}-Y[NMeA]NP[Dap]L[Hyp]W[Dab]([CO-X39])[Trp(1-CH2COOH)][NMeNle][NMeNle]LCG-NH2; thioether N-14)
8 | 6.4 nM | CCCC[C@H]1C(=O)N(C)[C@@H](CCCC)C(=O)N[C@@H](CC(C)C)C(=O)N[C@H](C(=O)NCC(N)=O)CSCC(=O)N[C@@H](Cc2ccc(O)cc2)C(=O)N(C)[C@@H](C)C(=O)N[C@@H](CC(N)=O)C(=O)N2CCC[C@H]2C(=O)N[C@@H](CNC(=S)Nc2ccc3nsnc3c2)C(=O)N[C@@H](CC(C)C)C(=O)N2C[C@H](O)C[C@H]2C(=O)N[C@@H](Cc2c[nH]c3ccccc23)C(=O)N[C@@H](CCNC(=S)Nc2ccc3nsnc3c2)C(=O)N[C@@H](Cc2cn(CC(=O)O)c3ccccc23)C(=O)N1C [Example 3008] ({CH2CO}-Y[NMeA]NP[Dap](X59)L[Hyp]W[Dab](X59)[Trp(1-CH2COOH)][NMeNle][NMeNle]LCG-NH2; thioether N-14)
9 | 3.2 nM | CCCC[C@H]1C(=O)N(C)[C@@H](CCCC)C(=O)N[C@@H](CC(C)C)C(=O)N[C@H](C(=O)NCC(N)=O)CSCC(=O)N[C@@H](Cc2ccc(O)cc2)C(=O)N(C)[C@@H](C)C(=O)N[C@@H](CC(N)=O)C(=O)N2CCC[C@H]2C(=O)N[C@@H](CNC(=S)Nc2cccc3ncccc23)C(=O)N[C@@H](CC(C)C)C(=O)N2C[C@H](O)C[C@H]2C(=O)N[C@@H](Cc2c[nH]c3ccccc23)C(=O)N[C@@H](CCNC(=S)Nc2cccc3ncccc23)C(=O)N[C@@H](Cc2cn(CC(=O)O)c3ccccc23)C(=O)N1C [Example 3024] ({CH2CO}-Y[NMeA]NP[Dap](X54)L[Hyp]W[Dab](X54)[Trp(1-CH2COOH)][NMeNle][NMeNle]LCG-NH2; thioether N-14)
10 | 8.6 nM | CCCC[C@H]1C(=O)N(C)[C@@H](CCCC)C(=O)N[C@@H](CC(C)C)C(=O)N[C@H](C(=O)NCC(N)=O)CSCC(=O)N[C@@H](Cc2ccc(O)cc2)C(=O)N(C)[C@@H](C)C(=O)N[C@@H](CC(N)=O)C(=O)N2CCC[C@H]2C(=O)N[C@@H](CN)C(=O)N[C@@H](CC(C)C)C(=O)N2C[C@H](O)C[C@H]2C(=O)N[C@@H](Cc2c[nH]c3ccccc23)C(=O)N[C@@H](CCNC(=O)Nc2cc(F)cc(F)c2)C(=O)N[C@@H](Cc2cn(CC(=O)O)c3ccccc23)C(=O)N1C [Example 1101] ({CH2CO}-Y[NMeA]NP[Dap]L[Hyp]W[Dab]([CO-X37])[Trp(1-CH2COOH)][NMeNle][NMeNle]LCG-NH2; thioether N-14)
11 | 4.1 nM | CCCC[C@H]1C(=O)N(C)[C@@H](CCCC)C(=O)N[C@@H](CC(C)C)C(=O)N[C@H](C(=O)NCC(N)=O)CSCC(=O)N[C@@H](Cc2ccc(O)cc2)C(=O)N(C)[C@@H](C)C(=O)N[C@@H](CC(N)=O)C(=O)N2CCC[C@H]2C(=O)N[C@@H](CNC(=O)Nc2cccc(C(=O)OCC)c2)C(=O)N[C@@H](CC(C)C)C(=O)N2C[C@H](O)C[C@H]2C(=O)N[C@@H](Cc2c[nH]c3ccccc23)C(=O)N[C@@H](CCN)C(=O)N[C@@H](Cc2cn(CC(=O)O)c3ccccc23)C(=O)N1C [Example 1078] ({CH2CO}-Y[NMeA]NP[Dap]([CO-3Abz-OEt])L[Hyp]W[Dab][Trp(1-CH2COOH)][NMeNle][NMeNle]LCG-NH2; thioether N-14)
12 | 1.5 nM | CCCC[C@H]1C(=O)N(C)[C@@H](CCCC)C(=O)N[C@@H](CC(C)C)C(=O)N[C@H](C(=O)NCC(N)=O)CSCC(=O)N[C@@H](Cc2ccc(O)cc2)C(=O)N(C)[C@@H](C)C(=O)N[C@@H](CC(N)=O)C(=O)N2CCC[C@H]2C(=O)N[C@@H](CNC(=S)Nc2c(Cl)cc(Cl)cc2Cl)C(=O)N[C@@H](CC(C)C)C(=O)N2C[C@H](O)C[C@H]2C(=O)N[C@@H](Cc2c[nH]c3ccccc23)C(=O)N[C@@H](CCN)C(=O)N[C@@H](Cc2cn(CC(=O)O)c3ccccc23)C(=O)N1C [Example 1109] ({CH2CO}-Y[NMeA]NP[Dap](X78)L[Hyp]W[Dab][Trp(1-CH2COOH)][NMeNle][NMeNle]LCG-NH2; thioether N-14)

same assay, conditions: read-out: HTRF IC50; PD-L1-His 10 nM pre-incubated with inhibitor, PD-1-Ig 20 nM

Row | SMILES | IC50
13 | CCCC[C@H]1C(=O)N(C)[C@@H](CCCC)C(=O)N[C@@H](CC(C)C)C(=O)N[C@H](C(=O)NCC(N)=O)CSCC(=O)N[C@@H](Cc2ccc(O)cc2)C(=O)N(C)[C@@H](C)C(=O)N[C@@H](CC(N)=O)C(=O)N2CCC[C@H]2C(=O)N[C@@H](CNC(=O)Nc2ccccc2-c2ccccc2)C(=O)N[C@@H](CC(C)C)C(=O)N2C[C@H](O)C[C@H]2C(=O)N[C@@H](Cc2c[nH]c3ccccc23)C(=O)N[C@@H](CCNC(=O)Nc2ccccc2-c2ccccc2)C(=O)N[C@@H](Cc2cn(CC(=O)O)c3ccccc23)C(=O)N1C [Example 1126] ({CH2CO}-Y[NMeA]NP[Dap]([CO-X2])L[Hyp]W[Dab]([CO-X2])[Trp(1-CH2COOH)][NMeNle][NMeNle]LCG-NH2; thioether N-14) | 1 nM
